Test results reported in ChEMBL document CHEMBL5625251, “Anti-influenza virus activities and mechanism of antrafenine analogs” (Eur J Med Chem, 2023).
Activity calls are given as the source filed them. The rule behind the calls is not given here.

Legend:
[1] = Cytotoxicity against MDCK cells assessed as reduction in cell viability incubated for 48 hrs by MTT assay; type: toxicity, cell-based, Canis lupus familiaris; conditions: dog
Influenza A virus [2] = test: Antiviral activity against Influenza A virus A/WSN/33(H1N1) infected in MDCK cells assessed as reduction in virus-induced cytopathic effect at 100 uM pre-infected with cells for 1 hrs followed by compound addition and measured after 2 days by MTT assay; type: functional, organism-based; conditions: time 2.0 day
Influenza A virus [3] = test: Antiviral activity against Influenza A virus A/WSN/33(H1N1) infected in MDCK cells assessed as inhibition of viral growth pre-infected for 1 hr followed by compound addition and measured 24 hrs post infection by plaque assay; type: functional, organism-based
Influenza A virus [4] = test: Antiviral activity against Influenza A virus A/WSN/33(H1N1) infected in MDCK cells assessed as inhibition of viral growth at 100 uM pre-infected for 1 hr followed by compound addition and measured 24 hrs post infection by plaque assay relative to control; type: functional; conditions: time 23 hrs
Influenza A virus [5] = test: Antiviral activity against Influenza A virus A/WSN/33(H1N1) infected in MDCK cells assessed as inhibition of viral growth at 50 uM pre-infected for 1 hr followed by compound addition and measured 24 hrs post infection by plaque assay relative to control; type: functional; conditions: time 23 hrs
MDCK = test: Cytotoxicity against MDCK cells assessed as reduction in cell viability at 12.5 uM incubated for 48 hrs by MTT assay; type: toxicity, cell-based, Canis lupus familiaris; conditions: dog
Influenza A virus [6] = test: Antiviral activity against Influenza A virus A/WSN/33(H1N1) infected in MDCK cells assessed as inhibition of viral growth at 6.25 uM pre-infected for 1 hr followed by compound addition and measured 24 hrs post infection by plaque assay relative to control; type: functional; conditions: time 23 hrs
Influenza A virus [7] = test: Antiviral activity against Influenza A virus A/WSN/33(H1N1) infected in MDCK cells assessed as inhibition of viral growth 12.5 uM pre-infected for 1 hr followed by compound addition and measured 24 hrs post infection by plaque assay relative to control; type: functional; conditions: for inhibition at 12.5 µM: time 23 hrs; for inhibition: time 23.0 hrs

Compound	CC50 at 48 h [1] [µM]	further results
O=C(CNC(=O)c1ccccc1Nc1ccnc2ccc(Cl)cc12)NCc1ccccc1	> 100	Activity (Influenza A virus [2]): Active
CCC(CC)O[C@@H]1C=C(C(=O)O)C[C@H](N)[C@H]1NC(C)=O [OSELTAMIVIR CARBOXYLATE]		IC50 (Influenza A virus [3]): 9 pM
NC(=O)c1ccccc1Nc1ccnc2cc(C(F)(F)F)ccc12	> 100	
O=C(NCc1ccccc1)c1ccccc1Nc1ccnc2ccc(Cl)cc12	45.3	
O=C(NCC(=O)N1CCOCC1)c1ccccc1Nc1ccnc2cc(C(F)(F)F)ccc12	> 100	inhibition at 100 µM (Influenza A virus [4]): 60.6%
O=C(NCCN1CCN(c2cccc(Cl)c2Cl)CC1)c1ccccc1Nc1ccnc2ccc(Cl)cc12	> 50	
O=C(Nc1ccccc1)c1ccccc1Nc1ccnc2cc(C(F)(F)F)ccc12	> 100	
O=C(O)c1ccccc1Nc1ccnc2ccc(Cl)cc12	> 100	inhibition at 50 µM (Influenza A virus [5]): 3.5%
O=C(NCCN1CCN(c2ccccc2Cl)CC1)c1ccccc1Nc1ccnc2ccc(Cl)cc12		Activity (MDCK): Toxic
O=C(NCCCO)c1ccccc1Nc1ccnc2ccc(Cl)cc12	> 100	inhibition at 100 µM (Influenza A virus [4]): 69.5%
CCN(CC)CCCNC(=O)c1ccccc1Nc1ccnc2ccc(Cl)cc12	38	inhibition at 6.25 µM (Influenza A virus [6]): 15.3%
O=C(Nc1ccc(Br)cc1)c1ccccc1Nc1ccnc2cc(C(F)(F)F)ccc12		inhibition at 6.25 µM (Influenza A virus [6]): 74.5%; Activity (MDCK): Toxic
O=C(Nc1cccc([N+](=O)[O-])c1)c1ccccc1Nc1ccnc2ccc(Cl)cc12		inhibition at 6.25 µM (Influenza A virus [6]): 21.4%; Activity (MDCK): Toxic
O=C(NCC(=O)N1CCN(c2cccc(Cl)c2Cl)CC1)c1ccccc1Nc1ccnc2ccc(Cl)cc12	> 50	inhibition at 12.5 µM (Influenza A virus [7]): 24%
NC(=O)c1ccccc1Nc1ccnc2ccc(Cl)cc12	> 100	inhibition at 100 µM (Influenza A virus [4]): 22.5%
CC(C)NC(=O)c1ccccc1Nc1ccnc2cc(C(F)(F)F)ccc12	> 100	
Cc1ccccc1N1CCN(C(=O)CNC(=O)c2ccccc2Nc2ccnc3ccc(Cl)cc23)CC1	> 100	inhibition at 12.5 µM (Influenza A virus [7]): 55.8%
Cc1ccc(N2CCN(CCNC(=O)c3ccccc3Nc3ccnc4ccc(Cl)cc34)CC2)c(C)c1	22.9	
O=C(CNC(=O)c1ccccc1Nc1ccnc2cc(C(F)(F)F)ccc12)NCCCN1CCOCC1	> 50	inhibition at 50 µM (Influenza A virus [5]): 94.9%
O=C(CNC(=O)c1ccccc1Nc1ccnc2cc(C(F)(F)F)ccc12)NCc1ccccc1	> 100	

Compound	CC50 at 48 h [1] [µM]	further results
O=C(NC12CC3CC(CC(C3)C1)C2)c1ccccc1Nc1ccnc2cc(C(F)(F)F)ccc12		Activity (MDCK): Toxic
COC(=O)c1ccccc1Nc1ccnc2cc(C(F)(F)F)ccc12	> 100	inhibition at 100 µM (Influenza A virus [4]): 17.9%
O=C(NC1CCCCC1)c1ccccc1Nc1ccnc2cc(C(F)(F)F)ccc12	> 50	inhibition at 12.5 µM (Influenza A virus [7]): 41.3%
Cc1ccccc1N1CCN(CCNC(=O)c2ccccc2Nc2ccnc3ccc(Cl)cc23)CC1		Activity (MDCK): Toxic
CNC(=O)c1ccccc1Nc1ccnc2cc(C(F)(F)F)ccc12	> 100	inhibition at 100 µM (Influenza A virus [4]): 20%
O=C(NCCCO)c1ccccc1Nc1ccnc2cc(C(F)(F)F)ccc12	> 100	inhibition at 100 µM (Influenza A virus [4]): 62.6%
O=C(NCCN1CCN(c2ccccc2OC(F)(F)F)CC1)c1ccccc1Nc1ccnc2ccc(Cl)cc12	> 100	inhibition at 50 µM (Influenza A virus [5]): 50%
Cc1ccc(N2CCN(CCNC(=O)c3ccccc3Nc3ccnc4cc(C(F)(F)F)ccc34)CC2)c(C)c1	> 100	
O=C(NCCCN1CCOCC1)c1ccccc1Nc1ccnc2cc(C(F)(F)F)ccc12	> 100	inhibition at 100 µM (Influenza A virus [4]): 99.9%
CCOC(=O)c1ccccc1Nc1ccnc2cc(C(F)(F)F)ccc12	> 100	inhibition at 100 µM (Influenza A virus [4]): 9.09%
O=C(NCCN1CCN(c2ccccc2OC(F)(F)F)CC1)c1ccccc1Nc1ccnc2cc(C(F)(F)F)ccc12	> 100	
CN(C)CCNC(=O)c1ccccc1Nc1ccnc2ccc(Cl)cc12	19.9	
O=C(CNC(=O)c1ccccc1Nc1ccnc2cc(C(F)(F)F)ccc12)NC1CCCCC1	> 100	inhibition at 50 µM (Influenza A virus [5]): 69.3%
O=C(NC12CC3CC(CC(C3)C1)C2)c1ccccc1Nc1ccnc2ccc(Cl)cc12		Activity (MDCK): Toxic
CN(C)CCNC(=O)c1ccccc1Nc1ccnc2cc(C(F)(F)F)ccc12	17.4	inhibition (Influenza A virus [7]): inactive
O=C(c1ccccc1Nc1ccnc2cc(C(F)(F)F)ccc12)N1CCOCC1	> 100	
O=C(NCC(=O)N1CCOCC1)c1ccccc1Nc1ccnc2ccc(Cl)cc12	> 100	inhibition at 100 µM (Influenza A virus [4]): 65.4%
O=C(NCCN1CCN(c2ccccc2)CC1)c1ccccc1Nc1ccnc2ccc(Cl)cc12	> 100	inhibition (Influenza A virus [7]): inactive; Activity (Influenza A virus [2]): Active
O=C(CNC(=O)c1ccccc1Nc1ccnc2ccc(Cl)cc12)NC1CCCCC1	21.6	inhibition at 12.5 µM (Influenza A virus [7]): 44.4%
O=C(OCCN1CCN(c2cccc(C(F)(F)F)c2)CC1)c1ccccc1Nc1ccnc2cc(C(F)(F)F)ccc12 [ANTRAFENINE]	> 100	
